In brackets after ≈: the same amount, converted by molar mass. Read-outs that look alike come from different tables or passages of the source.
How the values were obtained:
Assay type in all cases: cell-based
[1] = system: Staphylococcus aureus 100 (ATCC 29213); test: MIC by broth microdilution, SA 100
Procedure: (§1) Antibacterial activity in vitro is investigated by broth microdilution method in Meuller-Hinton broth as recommended by NCCLS. All strains tested are clinical isolates either sensitive or resistant to natural glycopeptides. MIC values were determined using the CLSI-recommended broth microdilution procedure (Clinical and Laboratory Standards Institute, Methods for Dilution Antimicrobial Susceptibility Tests for Bacteria That Grow Aerobically; Approved Standard-Seventh Edition.). Automated liquid handlers (Multidrop 384, Labsystems, Helsinki, Finland; Biomek 2000 and Multimek 96, Beckman Coulter, Fullerton Calif.) were used to conduct serial dilutions and liquid transfers. The MIC value for vancomycin is given for comparison. The abbreviations for organisms tested are as follow: SA 100—Staphylococcus aureus 100 (ATCC 29213); SA 757—Staphylococcus aureus 757 (MRSA); SA 2012—Staphylococcus aureus 2012 (VISA); SE 835—Staphylococcus epidermidis 835; SE 831—Staphylococcus epidermidis 831 (MRSE); EFc 101—Enterococcus faecalis 101 (ATCC 29212); EFc 848—Enterococcus faecalis 848 (VRE, Van A); EFcm 800—Enterococcus faecium 800; EFcm 752—Enterococcus faecium 752 (VRE, Van A); SPNE 1195—Streptococcus pneumoniae 1195 (ATCC 49619); SPY 712—Streptococcus pyogenes 712.

[2] = system: Staphylococcus aureus 757 (MRSA); test: MIC by broth microdilution, SA 757; settings: read-out: MIC SA 757
Procedure: as §1

[3] = system: Staphylococcus aureus 2012 (VISA); test: MIC by broth microdilution, SA 2012; settings: class symbols
Procedure: as §1

[4] = system: Staphylococcus epidermidis 835; test: MIC by broth microdilution, SE 835
Procedure: as §1

[5] = system: Staphylococcus epidermidis 831 (MRSE); test: MIC by broth microdilution, SE 831; settings: read-out: MIC SE 831
Procedure: as §1

[6] = system: Enterococcus faecalis 101 (ATCC 29212); test: MIC by broth microdilution, EFc 101; settings: class symbols
Procedure: as §1

[7] = system: Enterococcus faecalis 848 (VRE, Van A); test: MIC by broth microdilution, EFc 848; settings: class symbols
Procedure: as §1

[8] = system: Enterococcus faecium 800; test: MIC by broth microdilution, EFcm 800
Procedure: as §1

[9] = system: Enterococcus faecium 752 (VRE, Van A); test: MIC by broth microdilution, EFcm 752; settings: class symbols
Procedure: as §1

[10] = system: Streptococcus pneumoniae 1195 (ATCC 49619); test: MIC by broth microdilution, SPNE 1195
Procedure: as §1

[11] = system: Streptococcus pyogenes 712; test: MIC by broth microdilution, SPY 712
Procedure: as §1

[12] = ATCC29213, Staphylococcus aureus 100 (ATCC 29213), class symbols, read-out: MIC SA 100
[13] = Staphylococcus aureus 757 (MRSA), class symbols
[14] = Staphylococcus aureus 2012 (VISA), read-out: MIC SA 2012
[15] = Staphylococcus epidermidis 835, class symbols, read-out: MIC SE 835
[16] = Staphylococcus epidermidis 831 (MRSE), class symbols
[17] = ATCC29212, Enterococcus faecalis 101 (ATCC 29212), read-out: MIC E FC 101
[18] = Enterococcus faecalis 848 (VRE, Van A), read-out: MIC E FC 848
[19] = Enterococcus faecium 800, class symbols, read-out: MIC E FCM 800
[20] = Enterococcus faecium 752 (VRE, Van A), read-out: MIC E FCM 752
[21] = ATCC49619, Streptococcus pneumoniae 1195 (ATCC 49619), class symbols, read-out: MIC S PNE 1195
[22] = Streptococcus pyogenes 712, class symbols, read-out: MIC S PYO 712

Structure (SMILES) | MIC [1, 12] [µg/mL] | MIC [2, 13] [µg/mL] | MIC [3, 14] [µg/mL] | MIC [4, 15] [µg/mL] | MIC [5, 16] [µg/mL] | MIC [6, 17] [µg/mL] | MIC [7, 18] [µg/mL] | MIC [8, 19] [µg/mL] | MIC [9, 20] [µg/mL] | MIC [10, 21] [µg/mL] | MIC [11, 22] [µg/mL] | other results
CCCCCOc1ccc(CCNC(=O)Oc2cc(O)c3c(c2)[C@@H](C(=O)O)NC(=O)[C@H]2NC(=O)[C@H](NC(=O)[C@@H]4NC(=O)[C@H](CC(N)=O)NC(=O)[C@H](NC(=O)[C@@H](CC(C)C)NC)[C@H](O)c5ccc(c(Cl)c5)Oc5cc4cc(c5O[C@@H]4O[C@H](CO)[C@@H](O)[C@H](O)[C@H]4O[C@H]4C[C@](C)(N)[C@H](O)[C@H](C)O4)Oc4ccc(cc4Cl)[C@H]2O)c2ccc(O)c-3c2)cc1 (atropisomer, axis not shown) [Compound 356] |  |  |  |  |  |  |  |  |  |  |  | MIC ([1]; Staphylococcus aureus, ATCC29213, read-out: MIC SA 100): 0.01 to 0.5 µg/mL (≈ 0.00594 to 0.297 µM); MIC ([2]; Staphylococcus aureus, MRSA): 0.01 to 0.5 µg/mL (≈ 0.00594 to 0.297 µM); MIC ([3]; Staphylococcus aureus, VISA, read-out: MIC SA 2012, Staphylococcus aureus 2012 (VISA)): 1 to 2 µg/mL (≈ 0.594 to 1.19 µM); MIC ([4]; Staphylococcus epidermidis, 835, read-out: MIC SE 835): 0.01 to 0.5 µg/mL (≈ 0.00594 to 0.297 µM); MIC ([5]; Staphylococcus epidermidis, MRSE): 0.01 to 0.5 µg/mL (≈ 0.00594 to 0.297 µM); MIC ([6]; Enterococcus faecalis, ATCC29212, read-out: MIC E FC 101, Enterococcus faecalis 101 (ATCC 29212)): 0.01 to 0.5 µg/mL (≈ 0.00594 to 0.297 µM); MIC ([7]; Enterococcus faecalis, VRE, read-out: MIC E FC 848, Enterococcus faecalis 848 (VRE, Van A)): > 16 µg/mL; MIC ([8]; Enterococcus faecium, 800, read-out: MIC E FCM 800): 0.01 to 0.5 µg/mL (≈ 0.00594 to 0.297 µM); MIC ([9]; Enterococcus faecium, VRE, read-out: MIC E FCM 752, Enterococcus faecium 752 (VRE, Van A)): 4 to 8 µg/mL (≈ 2.38 to 4.75 µM); MIC ([10]; Streptococcus pneumoniae, ATCC49619, read-out: MIC S PNE 1195): 0.01 to 0.5 µg/mL (≈ 0.00594 to 0.297 µM); MIC ([11]; Streptococcus pyogenes, 712, read-out: MIC S PYO 712): 0.01 to 0.5 µg/mL (≈ 0.00594 to 0.297 µM)
CCCCCOc1ccc(S(=O)(=O)NCCCCCCNCc2c(O)cc3c(c2O)-c2cc(ccc2O)[C@H]2NC(=O)[C@@H]4NC(=O)[C@H](CC(N)=O)NC(=O)[C@H](NC(=O)[C@@H](CC(C)C)NC)[C@H](O)c5ccc(c(Cl)c5)Oc5cc4cc(c5O[C@@H]4O[C@H](CO)[C@@H](O)[C@H](O)[C@H]4O[C@H]4C[C@](C)(NC(=O)[C@@H](C)N)[C@H](O)[C@H](C)O4)Oc4ccc(cc4Cl)[C@@H](O)[C@H](NC2=O)C(=O)N[C@@H]3C(=O)O)cc1 (atropisomer, axis not shown) [Compound 357] | 0.01 to 0.5 (≈ 0.00533 to 0.267 µM) | 0.01 to 0.5 (≈ 0.00533 to 0.267 µM) | 0.01 to 0.5 (≈ 0.00533 to 0.267 µM) | 0.01 to 0.5 (≈ 0.00533 to 0.267 µM) | 0.01 to 0.5 (≈ 0.00533 to 0.267 µM) | 0.01 to 0.5 (≈ 0.00533 to 0.267 µM) | > 16 | 0.01 to 0.5 (≈ 0.00533 to 0.267 µM) | 4 to 8 (≈ 2.13 to 4.27 µM) | 0.01 to 0.5 (≈ 0.00533 to 0.267 µM) | 0.01 to 0.5 (≈ 0.00533 to 0.267 µM) | 
CCCCCCc1ccc(S(=O)(=O)NCCCCCCNCc2c(O)cc3c(c2O)-c2cc(ccc2O)[C@H]2NC(=O)[C@@H]4NC(=O)[C@H](CC(N)=O)NC(=O)[C@H](NC(=O)[C@@H](CC(C)C)NC)[C@H](O)c5ccc(c(Cl)c5)Oc5cc4cc(c5O[C@@H]4O[C@H](CO)[C@@H](O)[C@H](O)[C@H]4O[C@H]4C[C@](C)(NC(=O)CN)[C@H](O)[C@H](C)O4)Oc4ccc(cc4Cl)[C@@H](O)[C@H](NC2=O)C(=O)N[C@@H]3C(=O)O)cc1 (atropisomer, axis not shown) [Compound 362] | 0.01 to 0.5 (≈ 0.00538 to 0.269 µM) | 0.01 to 0.5 (≈ 0.00538 to 0.269 µM) | 0.01 to 0.5 (≈ 0.00538 to 0.269 µM) | 0.01 to 0.5 (≈ 0.00538 to 0.269 µM) | 0.01 to 0.5 (≈ 0.00538 to 0.269 µM) | 0.01 to 0.5 (≈ 0.00538 to 0.269 µM) | 8 to 16 (≈ 4.3 to 8.61 µM) | 0.01 to 0.5 (≈ 0.00538 to 0.269 µM) | 2 to 4 (≈ 1.08 to 2.15 µM) | 0.01 to 0.5 (≈ 0.00538 to 0.269 µM) | 0.01 to 0.5 (≈ 0.00538 to 0.269 µM) | 
CCCCCCc1ccc(S(=O)(=O)NCCCCCCNCc2c(O)cc3c(c2O)-c2cc(ccc2O)[C@H]2NC(=O)[C@@H]4NC(=O)[C@H](CC(N)=O)NC(=O)[C@H](NC(=O)[C@@H](CC(C)C)NC)[C@H](O)c5ccc(c(Cl)c5)Oc5cc4cc(c5O[C@@H]4O[C@H](CO)[C@@H](O)[C@H](O)[C@H]4O[C@H]4C[C@](C)(NC(C)=O)[C@H](O)[C@H](C)O4)Oc4ccc(cc4Cl)[C@@H](O)[C@H](NC2=O)C(=O)N[C@@H]3C(=O)O)cc1 (atropisomer, axis not shown) [Compound 363] | 0.01 to 0.5 (≈ 0.00542 to 0.271 µM) | 0.01 to 0.5 (≈ 0.00542 to 0.271 µM) | 0.01 to 0.5 (≈ 0.00542 to 0.271 µM) | 0.01 to 0.5 (≈ 0.00542 to 0.271 µM) | 0.01 to 0.5 (≈ 0.00542 to 0.271 µM) | 0.01 to 0.5 (≈ 0.00542 to 0.271 µM) | 8 to 16 (≈ 4.34 to 8.68 µM) | 0.01 to 0.5 (≈ 0.00542 to 0.271 µM) | 2 to 4 (≈ 1.08 to 2.17 µM) | 0.01 to 0.5 (≈ 0.00542 to 0.271 µM) | 0.01 to 0.5 (≈ 0.00542 to 0.271 µM) | 
